Read-outs that look alike come from different tables or passages of the source. Marks after values point to notes of the source that are not given here.
Assays:
HL-60 cells = test: Anti-proliferation 72-hour CTG assay, HL-60; assay type: cell-based; settings: Homo sapiens; HL-60, 72-hour CTG assay; read-out: IC50 of the anti-proliferative effect
Method: (§1) A plethora of AML cell lines were treated with serial dilutions of Compound D. IC50 value of the anti-proliferation effect of Compound D (as determined in 72-hour CTG assays) in each cell line is summarized in Table 1.

ATF3 = ATF3 protein induction, western blot, HNT-34; assay type: cell-based, human; settings: HNT-34, 10 nM Compound D
Method: The time course of GSPT1 degradation was monitored by western blot analysis of HNT-34 AML cells and normal PBMCs (FIGS. 32A-32D) following incubation with Compound D (1, 10, and 100 nM).

GSPT1 [1] = target: T1, GSPT1 (Homo sapiens, UniProt P15170+Q96SW2); test: GSPT1 protein reduction, western analysis, Kasumi-1; assay type: cell-based; design: reduction in GSPT1 protein level was evaluated in human normal PBMCs; endogenous in cells; host or cells: primary PBMCs from normal donors (ID 4328, 4379) and AML patients (ID 11SH, 09P6)
Method: (§2) The time course of the reduction in GSPT1 by Compound D also was studied for up to 48 hours. The progressive degradation of GSPT1 over the course of 1 to 20 hours was evident in the presence of all concentrations of Compound D studied from 3 to 300 nM in HNT-34, HL-60, and ML-2 cells, with little GSPT1 remaining by 20 hours at 100 or 300 nM Compound D in HNT-34 or HL-60 cells (FIG. 34 and FIG. 35C). Time-dependent reduction in GSPT1 was also observed in KG-1 and OCI-AML2 cells at 3 to 1000 nM Compound D, with little GSPT1 remaining in KG-1 cells at 100 to 300 nM at 24 hours or in OCI-AML2 cells at 300 and 1000 nM at 24 hours (FIG. 35D). Loss of GSPT1 occurred more slowly in Kasumi-1, AML-193, and […] cells. […] A positive association (r^2=0.50; […]

GSPT1 [2] = target: T1, GSPT1; test: GSPT1 protein reduction, western analysis, F36-P; assay type: cell-based; design: reduction in GSPT1 protein level was evaluated in human normal PBMCs; endogenous in cells; host or cells: primary PBMCs from normal donors (ID 4328, 4379) and AML patients (ID 11SH, 09P6)
Method: as §2

KASUMI-1 cells [3] = test: Apoptosis (caspase 3/7 activation), Kasumi-1; assay type: cell-based, human
KASUMI-1 cells [4] = test: Anti-proliferation 72-hour CTG assay, KASUMI-1; assay type: cell-based; settings: Homo sapiens; KASUMI-1, 72-hour CTG assay; read-out: IC50 of the anti-proliferative effect
Method: as §1

[5] = tested on: ATF3, DDIT3, cleaved Caspases, cleaved PARP; test: UPR and apoptosis pathway components in KG1 cells; assay type: cell-based, human; settings: KG1, 200 nM
Method: Cells were treated with DMSO alone or 200 nM Compound D. After 2, 4, or 6 hours, the expression levels of various cellular components along UPR or apoptosis pathways were measured. […] Reduction of BIP indicates UPR.
Cells were treated with DMSO alone, 200 nM Compound D, or 200 nM Compound E. After 8 or 12 hours, the expression levels of various cellular components along UPR or apoptosis pathways were measured. […] Reduction of BIP indicates UPR.
To further investigate the timeline of cellular events upon Compound D treatment, KG1 cells were treated with DMSO alone or 200 nM Compound D. At 2, 4, 6, 8, 10, or 12 hours, the expression levels of various cellular components along ATF4 or apoptosis pathways were measured.

HNT-34 cells = test: Apoptosis (caspase 3/7 activation), HNT-34; assay type: cell-based, human; settings: for EC50: Homo sapiens, read-out: Compound D-induced Apoptosis EC50
GSPT1 [6] = target: T1, GSPT1; test: GSPT1 degradation, western blot, MOLM-13; assay type: cell-based; design: endogenous in cells; settings: 100 nM
From the text: Thus, Compound D-induced GSPT1 degradation is also CRBN-dependent.

T1 sequence (P15170 1-637 isoform P15170-3): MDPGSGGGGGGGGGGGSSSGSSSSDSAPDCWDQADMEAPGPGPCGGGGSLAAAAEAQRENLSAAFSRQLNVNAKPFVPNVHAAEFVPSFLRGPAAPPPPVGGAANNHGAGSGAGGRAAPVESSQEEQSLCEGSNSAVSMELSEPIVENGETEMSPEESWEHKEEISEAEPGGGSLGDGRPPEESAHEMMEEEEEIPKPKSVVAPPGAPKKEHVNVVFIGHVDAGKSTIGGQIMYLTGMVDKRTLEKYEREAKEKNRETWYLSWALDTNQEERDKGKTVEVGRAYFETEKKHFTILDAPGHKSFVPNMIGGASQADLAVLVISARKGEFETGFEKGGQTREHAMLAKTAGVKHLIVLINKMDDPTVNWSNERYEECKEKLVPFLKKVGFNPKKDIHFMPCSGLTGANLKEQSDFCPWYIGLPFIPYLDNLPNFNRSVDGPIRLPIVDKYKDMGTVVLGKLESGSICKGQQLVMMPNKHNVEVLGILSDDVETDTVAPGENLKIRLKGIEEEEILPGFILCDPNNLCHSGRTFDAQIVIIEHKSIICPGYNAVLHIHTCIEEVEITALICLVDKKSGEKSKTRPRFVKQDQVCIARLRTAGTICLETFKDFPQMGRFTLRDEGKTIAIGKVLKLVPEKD
T1 sequence (Q96SW2 whole entry): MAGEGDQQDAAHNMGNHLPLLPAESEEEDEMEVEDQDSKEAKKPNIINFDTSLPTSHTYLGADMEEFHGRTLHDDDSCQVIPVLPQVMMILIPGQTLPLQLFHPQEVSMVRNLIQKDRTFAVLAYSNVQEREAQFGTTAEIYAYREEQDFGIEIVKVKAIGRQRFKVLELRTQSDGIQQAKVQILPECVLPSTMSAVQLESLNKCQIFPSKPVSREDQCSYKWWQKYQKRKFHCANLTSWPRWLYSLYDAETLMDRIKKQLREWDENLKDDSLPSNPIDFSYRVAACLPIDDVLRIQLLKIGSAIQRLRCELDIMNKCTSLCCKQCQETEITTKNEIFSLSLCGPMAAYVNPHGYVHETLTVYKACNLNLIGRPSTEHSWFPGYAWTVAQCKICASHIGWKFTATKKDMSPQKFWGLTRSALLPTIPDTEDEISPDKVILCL
T1 sequence (Q16531 whole entry partner): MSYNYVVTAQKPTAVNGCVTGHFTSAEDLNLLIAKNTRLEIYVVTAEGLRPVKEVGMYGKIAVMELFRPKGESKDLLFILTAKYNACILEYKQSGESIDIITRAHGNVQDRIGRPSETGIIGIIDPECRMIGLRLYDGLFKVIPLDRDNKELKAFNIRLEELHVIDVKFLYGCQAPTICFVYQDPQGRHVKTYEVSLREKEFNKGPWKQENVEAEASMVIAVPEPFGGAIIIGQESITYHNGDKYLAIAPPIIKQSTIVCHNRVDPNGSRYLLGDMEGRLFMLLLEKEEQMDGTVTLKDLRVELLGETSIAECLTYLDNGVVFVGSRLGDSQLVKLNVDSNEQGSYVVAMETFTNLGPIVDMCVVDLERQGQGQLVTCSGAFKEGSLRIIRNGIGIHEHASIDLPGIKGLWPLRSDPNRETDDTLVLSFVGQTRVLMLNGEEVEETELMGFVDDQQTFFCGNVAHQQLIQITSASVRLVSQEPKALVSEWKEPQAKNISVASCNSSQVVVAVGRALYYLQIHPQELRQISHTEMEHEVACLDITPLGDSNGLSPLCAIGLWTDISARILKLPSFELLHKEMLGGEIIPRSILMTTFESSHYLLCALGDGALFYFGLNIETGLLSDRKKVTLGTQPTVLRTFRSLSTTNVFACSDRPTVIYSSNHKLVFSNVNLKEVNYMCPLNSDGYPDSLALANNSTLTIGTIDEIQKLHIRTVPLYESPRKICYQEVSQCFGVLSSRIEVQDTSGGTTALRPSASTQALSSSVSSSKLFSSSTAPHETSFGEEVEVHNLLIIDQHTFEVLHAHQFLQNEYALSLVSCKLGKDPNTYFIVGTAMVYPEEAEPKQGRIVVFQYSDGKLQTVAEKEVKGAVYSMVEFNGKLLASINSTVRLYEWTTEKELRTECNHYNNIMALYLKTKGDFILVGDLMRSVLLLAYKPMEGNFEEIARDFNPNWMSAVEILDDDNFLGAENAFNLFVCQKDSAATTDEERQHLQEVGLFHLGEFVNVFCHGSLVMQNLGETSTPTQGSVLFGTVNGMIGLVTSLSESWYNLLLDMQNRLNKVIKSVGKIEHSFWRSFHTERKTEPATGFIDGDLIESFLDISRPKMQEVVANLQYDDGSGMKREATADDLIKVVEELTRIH

## O=C1CCC(N2Cc3cc(CNC(=O)C(F)(F)c4ccc(Cl)cc4)ccc3C2=O)C(=O)N1 (stereo not drawn) [Compound D, 2-(4-chlorophenyl)-N-((2-(2,6-dioxopiperidin-3-yl)-1-oxoisoindolin-5-yl)methyl)-2,2-difluoroacetamide]
HL-60 cells
  IC50: 20 nM
ATF3
  time of induction of ATF3 protein: 12 h
GSPT1 [1]; Kasumi-1, 100 nM, 8 hr
  Percent Reduction at 100 nM Compound D GSPTI (8 hr): 64%
GSPT1 [1]; Kasumi-1, 300 nM Compound D, 8 hours
  GSPT1 reduction: 51%
GSPT1 [2]; 100 nM, 8 hr, change not concentration-dependent at the 8-hour time point
  Percent Reduction at 100 nM Compound D GSPTI (8 hr): 39^a %
GSPT1 [2]; 300 nM Compound D, 8 hours
  GSPT1 reduction: 18%
KASUMI-1 cells [3]; Homo sapiens, read-out: Compound D-induced Apoptosis EC50, Kasumi-1, 96 hr
  EC50: 55 nM
KASUMI-1 cells [3]; Kasumi-1, 123 nM, 12 hr
  Average Percent Increase in Apoptosis at 123 nM Compound D, Apoptosis (12 hr): 1%
KASUMI-1 cells [3]; Kasumi-1, 123 nM, 24 hr
  Average Percent Increase in Apoptosis at 123 nM Compound D, Apoptosis (24 hr): 3%
KASUMI-1 cells [3]; Kasumi-1, 123 nM, 48 hr
  Average Percent Increase in Apoptosis at 123 nM Compound D, Apoptosis (48 hr): 18%
KASUMI-1 cells [4]
  IC50: 21 nM
[5]
  time at which levels of apoptotic markers started to increase: approximately 6 hrs
[5]; 8 or 12 hours
  level of ATF3, DDIT3, cleaved Caspase-3, cleaved Caspase-8, and cleaved PARP: increased the level
HNT-34 cells; HNT-34, 123 nM, 12 hr
  Average Percent Increase in Apoptosis at 123 nM Compound D, Apoptosis (12 hr): 3%
HNT-34 cells; HNT-34, 123 nM, 24 hr
  Average Percent Increase in Apoptosis at 123 nM Compound D, Apoptosis (24 hr): 12%
HNT-34 cells; HNT-34, 123 nM, 48 hr
  Average Percent Increase in Apoptosis at 123 nM Compound D, Apoptosis (48 hr): 32%
HNT-34 cells; HNT-34, 24 hr
  EC50: 7 nM
HNT-34 cells; HNT-34, 48 hr
  EC50: 4 nM
HNT-34 cells; HNT-34, 96 hr
  EC50: 2 nM
GSPT1 [6]; CRBN -/- MOLM-13 cells
  degradation of GSPT1: could not induce degradation
GSPT1 [6]; parental MOLM-13 cells
  degradation of GSPT1: induced degradation
